Results on ten molecules are retold here after US8338460B2, “2-pyridinecarboxamide derivative having GK-activating effect” (MSD K. K., priority 2006, dated 2012).

≈ marks a conversion by molar mass, not a printed value. Bounds are passed on as bounds.

What is called solubility is the dissolved amount per volume that the medium holds. Read a low solubility as little dissolved substance. In general, EC50 refers to the midpoint of the concentration-response curve. Usually Emax stands for the size of the effect at its maximum, as opposed to the concentration needed.

Series [1] in a line: Comparative test of solubility. It counts as physicochemical. To be noted: water, thermodynamic from solid.
Series [2] in a line: Comparative test of solubility. In kind it is physicochemical. Conditions: shaken 75 min; for solubility thermodynamic at 75 min: 200 mM potassium phosphate buffer, pH 7.4, aqueous buffer, read-out: Solibility to 200 mM potassium phosphate buffer; for solubility thermodynamic at 75 min / solubility at 75 min: thermodynamic from solid; for solubility at 75 min: JP-1 artificial gastric fluid, pH 1.2, simulated gastric fluid, JP-1 pH1.2 (artificial gastric fluid), 1 mg in 1 ml. Here is the method: Experiment 3 (Comparative Test of Solubility)
1 mg of compounds were placed in 1 ml of medium (JP-1, […] potassium phosphate buffer) and was shaken on a shaking-incubator for 75 min. (1000 rpm). After centrifugation, concentration of supernatant was analyzed by HPLC.
JP1: pH1.2 (artificial gastric fluid: 35 mM NaCl, 84 mM HCl in water)
2.0 g of NaCl, 7.0 ml of HCl and water were mixed in a measuring flask (1000 ml).
200 mM potassium phosphate buffer: pH7.4
200 mM K2HPO4 and 200 mM KH2PO4 were mixed and adjusted to pH7.4 by using pH meter.

Series [3] addresses T1, recombinant human liver GK (Homo sapiens, UniProt P35557).
T1 construct: made in house; host or cells: E. coli
T1 sequence (P35557 1-466 isoform P35557-2): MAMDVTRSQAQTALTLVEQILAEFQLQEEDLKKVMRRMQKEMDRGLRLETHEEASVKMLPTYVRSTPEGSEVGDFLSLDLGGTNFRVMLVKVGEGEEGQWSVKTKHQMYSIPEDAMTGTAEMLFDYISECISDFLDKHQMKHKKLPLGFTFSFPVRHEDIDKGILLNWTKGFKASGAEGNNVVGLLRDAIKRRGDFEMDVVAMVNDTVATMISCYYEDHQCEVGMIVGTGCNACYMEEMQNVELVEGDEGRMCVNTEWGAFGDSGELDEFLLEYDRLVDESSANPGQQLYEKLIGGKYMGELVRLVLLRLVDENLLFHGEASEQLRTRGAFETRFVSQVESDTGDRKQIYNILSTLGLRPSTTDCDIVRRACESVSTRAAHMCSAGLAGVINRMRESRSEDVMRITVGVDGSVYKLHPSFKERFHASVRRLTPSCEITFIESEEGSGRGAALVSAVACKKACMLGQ
Put plainly: Glucokinase-activating effect (Thio-NADH coupled assay with G6PDH). In kind it is biochemical. Conditions: 2.5 mM glucose, 30° C. The text has this:
Pharmacological Experiment 1 (Glucokinase-Activating Effect)
The excellent glucokinase-activating effect of the compounds of formula (I) may be determined by a method described in references (for example, Diabetes, Vol. 45, pp. 1671-1677, 1996), or in accordance with it.
The glucokinase activity may be determined not by directly measuring glucose-6-phosphate but by measuring the level of Thio-NADH, which is produced when a reporter enzyme, glucose-6-phosphate dehydrogenase produces phosphogluconolactone from glucose-6-phosphate, and based on the level, the degree of glucokinase activation by the compound tested may be determined.
In this assay, used was a recombinant human liver GK, which was expressed by E. coli as a FLAG fusion protein therein and was purified by ANTIFLAG M2 AFFINITY GEL (Sigma).
Using a flat-bottomed 96-well plate, the assay was carried out at 30° C. 69 μl of an assay buffer (25 mM Hepes Buffer/pH=7.2, 2 mM MgCl2, 1 mM ATP, 0.5 mM TNAD, 1 mM dithiothreitol) was put into the plate, and 1 μl of a DMSO solution of the compound or DMSO alone as a control was added thereto. Next, 20 μl of an enzyme mixture (FLAG-GK, 20 U/ml G6PDH) cooled in ice was added to it, and 10 μl of a substrate, 25 mM glucose was added to it, and the reaction was initiated (final glucose concentration=2.5 mM).
After the start of the reaction, the increase in the absorbance at 405 nm was measured for 12 minutes at intervals of 30 seconds, and the increase for the first 5 minutes was used for assessing the compound tested. FLAG-GK was added so that the absorbance increase after 5 minutes in the presence of 1% DMSO could be from 0.04 to 0.06.
The OD level of the DMSO control was set as 100%; and the OD level of the test compound at different concentrations was determined. From the OD level at each concentration, Emax (%) and EC50 (μM) were computed and used as the index of the GK-activating potency of the compound.

The next series relates to Male beagle dogs. The series can be described thus: Pharmacological test in dog: plasma glucose after oral administration. It counts as in vivo. To be noted: AUC for 4 hr after administration, fasted male beagle dogs. As for the experimental part: Pharmacological Experiment 2 (Pharmacological Test in Dog)
Male beagle dogs (BW 9.6-13.8 kg) were fasted overnight. Pre-dose blood sampling was performed from cephalic vein. The test drugs, which were suspended into 0.5% methylcellulose, were orally administrated (example 1 at 0.25, 0.5 and 1 mg/kg, and example 4, and compound B at 1 mg/kg). Control group was given 0.5% methylcellulose alone. Blood was taken every 0.5 or 1 hour after the drug dosing. Plasma sample were obtained by centrifugation, and the plasma glucose levels were measured by “Determiner GL-E” (Kyowa Medex Co., Ltd. Japan).

On to `CCN(C)CCOc1ccc(Sc2ccc(Sc3nncn3C)nc2C(=O)Nc2nc(C)ns2)cc1` [Example 23, 3-[(4-{2-[ethyl(methyl)amino]ethoxy}phenyl)thio]-N-(3-methyl-1,2,4-thiadiazol-5-yl)-6-[(4-methyl-4H-1,2,4-triazol-3-yl)thio]pyridine-2-carboxamide], for which the solubility at 75 min was 208 µg/mL (≈ 383 µM) in series [1] and over 1000 µg/mL in series [2]. In addition, in series [2] (pH7.4, 1 mg in 1 ml), the solubility thermodynamic at 75 min amounted to 122 µg/mL (≈ 226 µM). Besides, the EC50 in series [3] worked out at 60 nM.

Regarding `Cc1nsc(NC(=O)c2nc(Sc3nncn3C)ccc2Sc2ccc(CCO)cc2)n1` [(A), reference compound], the solubility at 75 min in series [1] was 2.4 µg/mL (≈ 4.94 µM); in series [2], 6.2 µg/mL (≈ 12.8 µM). In series [2] (pH7.4, 1 mg in 1 ml), the solubility thermodynamic at 75 min is 3.4 µg/mL (≈ 7 µM).

For the molecule `Cc1nsc(NC(=O)c2nc(Sc3nncn3C)ccc2Sc2ccc(OCCN3CCC[C@H]3C)cc2)n1` [Example 4], the solubility at 75 min in series [1] was 47.4 µg/mL (≈ 83.3 µM); in series [2], over 1000 µg/mL. For the same molecule, the “Solibility to 200 mM potassium phosphate buffer” value in series [2] (pH7.4, 1 mg in 1 ml) amounted to 47.3 µg/mL. For the same molecule, the “% Reduction of plasma glucose AUC” value in the series with Male beagle dogs (1 mg/kg oral) is reported as 26.8%. Also, the EC50 in series [3] was 150 nM.

For the molecule `Cc1nsc(NC(=O)c2nc(Sc3nnc[nH]3)ccc2Sc2ccc(OCCN(C)C)cc2)n1` [Compound (B), reference compound], in the series on Male beagle dogs (1 mg/kg oral), the “% Reduction of plasma glucose AUC” value was 7.4%.

Turning to `CCN1CC(Oc2ccc(Sc3ccc(Sc4nncn4C)nc3C(=O)Nc3nc(C)ns3)cc2)C1` [Example 25, 3-({4-[(1-ethylazetidin-3-yl)oxy]phenyl}thio)-N-(3-methyl-1,2,4-thiadiazol-5-yl)-6-[(4-methyl-4H-1,2,4-triazol-3-yl)thio]pyridine-2-carboxamide], the solubility at 75 min in series [1] is 16.4 µg/mL (≈ 30.3 µM); in series [2], over 1000 µg/mL. Moreover, in series [2] (pH7.4, 1 mg in 1 ml), the solubility thermodynamic at 75 min came out at 13.8 µg/mL (≈ 25.5 µM). Further, the “% Reduction of plasma glucose AUC” value in the series on Male beagle dogs (1 mg/kg oral) amounted to 42.1%. Besides, the EC50 in series [3] is 50 nM.

In the case of `Cc1nsc(NC(=O)c2nc(Sc3nncn3C)ccc2Sc2ccc(OCCN(C)C)cc2)n1` [Example 1, 3-({4-[2-(dimethylamino)ethoxy]phenyl}thio)-N-(3-methyl-1,2,4-thiadiazol-5-yl)-6-[(4-methyl-4H-1,2,4-triazol-3-yl)thio]pyridine-2-carboxamide], the results for the solubility at 75 min in series [1] and in series [2] were 15.2 µg/mL (≈ 28.8 µM) and over 1000 µg/mL, respectively. Besides, the solubility thermodynamic at 75 min in series [2] (pH7.4, 1 mg in 1 ml) stood at 17.5 µg/mL (≈ 33.1 µM). For the same molecule, the “% Reduction of plasma glucose AUC” value in the series with Male beagle dogs (0.25 mg/kg oral) is 7.9%; in the series on Male beagle dogs (0.5 mg/kg oral) it was 10.6%; with Male beagle dogs (1 mg/kg oral) it was 15.7%. The half-maximal effective concentration (EC50) in series [3] came to 90 nM.

Turning to `CCN(CC)CCOc1ccc(Sc2ccc(Sc3nncn3C)nc2C(=O)Nc2nc(C)ns2)cc1` [Example 24, 3-({4-[2-(diethylamino)ethoxy]phenyl}thio)-N-(3-methyl-1,2,4-thiadiazol-5-yl)-6-[(4-methyl-4H-1,2,4-triazol-3-yl)thio]pyridine-2-carboxamide], the solubility at 75 min in series [1] is 230 µg/mL (≈ 414 µM); in series [2], over 1000 µg/mL. For the same molecule, the solubility thermodynamic at 75 min in series [2] (pH7.4, 1 mg in 1 ml) stood at 298 µg/mL (≈ 536 µM). Further, the EC50 in series [3] is 40 nM.

Turning to `Cc1nsc(NC(=O)c2nc(Sc3nncn3C)ccc2Sc2ccc(OCCN3CCCCC3)cc2)n1` [Example 26, N-(3-methyl-1,2,4-thiadiazol-5-yl)-6-[(4-methyl-4H-1,2,4-triazol-3-yl)thio]-3-{[4-(2-piperidin-1-ylethoxy)phenyl]thio}pyridine-2-carboxamide], the solubility at 75 min in series [1] was 176 µg/mL (≈ 309 µM); in series [2] it was over 1000 µg/mL. Further, the solubility thermodynamic at 75 min in series [2] (pH7.4, 1 mg in 1 ml) amounted to 239 µg/mL (≈ 421 µM). For the same molecule, the EC50 in series [3] was determined as 70 nM.

Consider `Cc1nsc(NC(=O)c2nc(Sc3nncn3C)ccc2Sc2ccc(O[C@@H]3CCN(C(C)C)C3)cc2)n1` [Example 20, 3-[(4-{[(3R)-1-isopropylpyrrolidin-3-yl]oxy}phenyl)thio]-N-(3-methyl-1,2,4-thiadiazol-5-yl)-6-[(4-methyl-4H-1,2,4-triazol-3-yl)thio]pyridine-2-carboxamide], for which the results for the solubility at 75 min in series [1] and in series [2] were 127 µg/mL (≈ 223 µM) and over 1000 µg/mL, respectively. In addition, in series [2] (pH7.4, 1 mg in 1 ml), the solubility thermodynamic at 75 min turned out to be 86.8 µg/mL (≈ 153 µM). Further, in series [3], the EC50 turned out to be 40 nM. In series [3] (OD level of DMSO control set as 100%), the Emax stood at 964%.

For the molecule `Cc1nsc(NC(=O)c2nc(Sc3nncn3C)ccc2Sc2ccc(OC[C@@H]3CCCN3C)cc2)n1` [Example 7, 3-[(4-{[(2S)-1-methylpyrrolidin-2-yl]methoxy}phenyl)thio]-N-(3-methyl-1,2,4-thiadiazol-5-yl)-6-[(4-methyl-4H-1,2,4-triazol-3-yl)thio]pyridine-2-carboxamide], the solubility at 75 min in series [1] is 583 µg/mL (≈ 1050 µM); in series [2], over 1000 µg/mL. For the same molecule, the solubility thermodynamic at 75 min in series [2] (pH7.4, 1 mg in 1 ml) was found to be 308 µg/mL (≈ 555 µM). Moreover, the EC50 in series [3] is 60 nM.
